Laboratory results: patent US20010041177A1, “Methods for detecting inflammation and inflammatory conditions” (priority 2000, published 2001)

Tests used:
[1] = test system: CD163 expression on monocytes; assay: Monocytes cultured with LPS, DEX or IL-10, surface CD163 by immunofluorescence; type: cell-based, human; conditions: monocytes cultured with the agent alone
Procedure: In addition to testing the effects of cytokines in combination with glucocorticoids on levels of CD163, studies were performed to examine the effects of glucocorticoids in combination with lipopolysaccharide (LPS). […] However, when monocytes were cultured for 48 hours with DEX combined with LPS, their was a synergistic increase in CD163 expression, where the effect of DEX alone was increased by more than 2-fold when LPS treatment was added.

[2] = test system: monocyte CD163 expression; assay: CD163 expression on monocytes of PBMCs cultured with mediators, staining and flow cytometric analysis; type: cell-based, human; conditions: for increase of monocyte CD163 expression: PBMCs treated 24 hours, DEX 200 nM; for effect of cytokine alone on monocyte CD163 expression: at the concentrations tested
Procedure: To assess whether different cytokines could influence CD163 expression, freshly isolated PBMCs were cultured for 24 hours in the presence of various cytokines, 200 nM DEX (as a positive control for CD163 upregulation), or control media. The cells were then subjected to staining and flow cytometric analysis.
For cytokine treatment studies, isolated PBMCs were suspended in hepes buffered RPMI 1640/0.05% gentamicin/10% FBS at a concentration of 2.0×10^6 to 2.5×10^6 cells/ml and cultured in 96 well plates at 37° C. and 5% CO2 in the presence of various mediators (Table 1). Mononuclear cells were stained for flow cytometric analysis after 24 hours in culture unless otherwise indicated. This enhanced cell recovery because monocytes, which initially adhere to plastic vessels, transiently detach from culture wells at 24-48 hours.
All staining procedures were performed at 4 C. Briefly, cultured PBMCs were incubated with normal human IgG (6 mg/ml) to block Fc receptor-specific binding of mAbs and 30 μg/ml of the isotype control mAb P3 or a saturating amount of mAb MAC2-48 (20 μg/ml) for one hour. Cells were then washed and stained for one hour with 17.5 μg/ml FITC labeled goat F(ab=)2 anti-mouse Ig. The cells were again washed and fixed with 1% methanol free formalin.
Cell fluorescence of monocytes gated using forward and side scatter was analyzed using a Becton Dickenson FACScan (Franklin Lakes, N.J.). Mean fluorescence intensity (MFI) was calculated by subtracting the MFI of the P3 stained mononuclear cells from the MFI of the corresponding Mac2-48 stained cells.

monocyte surface CD163 [3] = assay: Shedding of monocyte surface CD163 in vitro; type: cell-based, human; conditions: cells pretreated with glucocorticoids plus LPS
Procedure: Therefore, like PMA, LPS is capable of inducing CD163 shedding. LPS-induced shedding occurred even with monocytes that had been cultured for 48 hours in DEX and thus had 5- to 10-fold higher levels of surface CD163 than freshly isolated monocytes. […] This LPS-conferred resistance to subsequent LPS-induced shedding of CD163 is similar to reported endotoxin pre-conditioning for resistance to subsequent inflammatory insults.

monocyte surface CD163 [4] = conditions: Droste et al. 1999; blocked by protease inhibitors; cited from earlier work
[5] = test system: CD163 expression on monocytes; conditions: purified monocytes, 2 days; cited from earlier work
CD163 mRNA = assay: Northern blots of CD163 mRNA in treated monocytes; type: cell-based, human; conditions: monocytes treated 8 hours; 5 ng/ml IL-10 or 10^-8 M FP
Procedure: Monocytes were treated for 8 hours with either IL-10, the glucocorticoid FP or control media.
Human monocytes were isolated and cultured overnight as described for western blots. Monocytes were then stimulated for 8 hours with 5 ng/ml IL-10 (R&D Systems) or 10^-8 M FP. Total RNA was isolated from IL-10 stimulated, glucocorticoid stimulated and control monocytes as described by Dreier, et al. (Dreier, J. et al. 1998. DNA Cell Biol. 17:321-323). 10 μg of total RNA per sample were electrophoretically separated in a 1% agarose, 2% formaldehyde gel and transferred onto a Hybond N^+nylon membrane (Amersham Inc., Arlington Heights, Ill.) in 20x saline-sodium citrate (SSC) using an LKB 2016 VacuGene blotting apparatus. Antisense RNA probes for northern hybridization were generated from linearized DNA templates using a digoxigenin RNA labeling kit (Boehringer Mannheim, Mannheim, Germany) and T7 RNA polymerase (New England Biolabs, Schwalbach, Germany) as described by the manufacturer. Prehybridization was performed at 68° C. for 1 hr in a high SDS hybridization buffer (7% SDS, 5x SSC, 50% formamide, 50 mM sodium phosphate, 2% casein, 0.1% N-lauroylsarcosine, pH 7.0). Subsequently the heat-denatured probes (10 minutes at 95° C.) were added to the prehybridization solution (100 ng/ml) and hybridized at 68° C. for 16 hours. […]

Molecule: C[C@@H]1C[C@H]2[C@@H]3CCC4=CC(=O)C=C[C@]4(C)[C@@]3(F)[C@@H](O)C[C@]2(C)[C@@]1(O)C(=O)CO [DEX, reference compound]
- surface CD163 on monocytes, single agent [1]: increased expression of CD163
- increase of monocyte CD163 expression ([2]; p<0.01): ~7 fold

Molecule: IL-13: interleukin-13, a cytokine
- effect of cytokine alone on monocyte CD163 expression ([2]; PBMCs 24 hours): did not upregulate CD163 expression

Molecule: CCCCCCCCCCCCCC(=O)O[C@@H]1[C@@H](C)[C@@]2(O)[C@@H](C=C(CO)C[C@]3(O)C(=O)C(C)=C[C@@H]23)[C@@H]2C(C)(C)[C@]12OC(C)=O [PMA]
- shedding of surface CD163 on subsequent treatment (monocyte surface CD163 [3]): remained sensitive to PMA-induced shedding
- shedding of surface CD163 from monocytes in culture (monocyte surface CD163 [4]): induce rapid shedding of surface CD163

Molecule: GM-CSF: granulocyte-macrophage colony stimulating factor
- effect of cytokine alone on CD163 expression [5]: neither GM-CSF nor IL-4 alone had any effect
- effect of cytokine plus DEX on CD163 expression [5]: synergistic effect
- effect of cytokine plus DEX on CD163 expression over DEX treatment alone ([2]; PBMCs 24 hours): does not enhance CD163 expression over DEX treatment alone

Molecule: CCC(=O)O[C@]1(C(=O)SCF)[C@H](C)C[C@H]2[C@@H]3C[C@H](F)C4=CC(=O)C=C[C@]4(C)[C@@]3(F)[C@@H](O)C[C@@]21C [FP, reference compound]
- CD163 mRNA levels (CD163 mRNA): increased from undetectable to strong bands

B1: IL-10: Interleukin-10 (originally known as cytokine synthesis inhibitory factor), a cytokine (protein, UniProt P22301 19-178, looked up)
Interleukin-10: SPGQGTQSENSCTHFPGNLPNMLRDLRDAFSRVKTFFQMKDQLDNLLLKESLLEDFKGYLGCQALSEMIQFYLEEVMPQAENQDPDIKAHVNSLGENLKTLRLRLRRCHRFLPCENKSKAVEQVKNAFNKLQEKGIYKAMSEFDIFINYIEAYMTMKIRN
- surface CD163 on monocytes, single agent [1]: increased expression of CD163
- CD163 mRNA levels (CD163 mRNA): increased from undetectable to strong bands
- increase of CD163 expression compared to control ([2]; PBMCs 24 hours, 10 and 100 ng/ml IL-10, p<0.01): approximately 3.5 fold
- increase of monocyte CD163 expression ([2]; p<0.01): approximately 4 fold

B2: IL-4: interleukin-4, a cytokine (protein, UniProt P05112 25-153, looked up)
Interleukin-4: HKCDITLQEIIKTLNSLTEQKTLCTELTVTDIFAASKNTTEKETFCRAATVLRQFYSHHEKDTRCLGATAQQFHRHKQLIRFLKRLDRNLWGLAGLNSCPVKEANQSTLENFLERLKTIMREKYSKCSS
- effect of cytokine alone on CD163 expression [5]: neither GM-CSF nor IL-4 alone had any effect
- effect of cytokine plus DEX on CD163 expression [5]: synergistic effect
- effect of cytokine plus DEX on CD163 expression over DEX treatment alone ([2]; PBMCs 24 hours): does not enhance CD163 expression over DEX treatment alone
- effect of cytokine alone on monocyte CD163 expression ([2]; PBMCs 24 hours): did not upregulate CD163 expression
